# Laboratory results from patent US8158628B2, “Sulfonylated 1,2,3,4-tetrahydropyrrolo[1,2-a]pyrazine compounds and their use as pharmaceuticals” (Gruenenthal GmbH, priority 2009, dated 2012).
# Target: T1, B1R of the rat (Rattus norvegicus, UniProt P97583)
# T1 construct: expressed in transfected cells; host or cells: CHO K1 cells (Chinese hamster ovary), stably transfected
# T1 sequence (P97583 1-337): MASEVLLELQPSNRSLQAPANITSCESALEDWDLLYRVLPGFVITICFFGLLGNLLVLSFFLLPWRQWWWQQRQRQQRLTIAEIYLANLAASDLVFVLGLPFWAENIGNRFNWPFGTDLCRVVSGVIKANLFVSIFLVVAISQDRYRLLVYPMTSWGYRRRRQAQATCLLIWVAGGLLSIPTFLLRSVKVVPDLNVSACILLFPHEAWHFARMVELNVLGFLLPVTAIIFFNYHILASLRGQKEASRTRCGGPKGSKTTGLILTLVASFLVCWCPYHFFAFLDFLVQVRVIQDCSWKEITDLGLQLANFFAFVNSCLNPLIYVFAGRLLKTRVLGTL
# Test: FLIPR Ca2+ functional assay, B1R antagonism, rat B1R in CHO K1 cells
# Format: cell-based
# Conditions: test substance 10 μM; rB1R CHO K1 cells; agonist Des-Arg9 bradykinin at EC80; % of maximum achievable inhibition
# Procedure: The agonistic or antagonistic action of substances on the bradykinin 1 receptor (B1R) of the human and rat species can be quantified with ectopically expressing cell lines (CHO K1 cells) and with the aid of a Ca^2+-sensitive dye (Fluo-4) using a fluorescent imaging plate reader (FLIPR). The value in % activation is based on the Ca^2+ signal after addition of Lys-Des-Arg^9 bradykinin (0.5 nM) or Des-Arg^9 bradykinin (100 nM). Antagonists lead to a suppression of the Ca^2+ influx following administration of the agonist. The % inhibition in comparison with the maximum achievable inhibition is indicated.
# 1. Functional Investigation on the Bradykinin 1 Receptor (B1R) The agonistic or antagonistic action of substances can be determined on the bradykinin 1 receptor (B1R) of the human and rat species with the following assay. According to this assay, the Ca^2+ inflow through the channel is quantified with the aid of a Ca^2+-sensitive dye (Fluo-4 type, Molecular Probes Europe BV, Leiden, Netherlands) in a fluorescent imaging plate reader (FLIPR, Molecular Devices, Sunnyvale, USA). 2. Method: Chinese hamster ovary cells (CHO K1 cells) which are stably transfected with the human B1R gene (hB1R cells) or the B1R gene of the rat (rB1R cells) are used. For functional investigations these cells are plated-out onto black 96-well plates with a clear base (BD Biosciences, Heidelberg, Germany or Greiner, Frickenhausen, Germany) in a density of 20,000-35,000 cells/well. Overnight the cells are incubated at 37° C. and 5% CO2 in culture medium (hB1R cells: Ham's Nutrient Mixture F12, Gibco Invitrogen GmbH, Karlsruhe, Germany or DMEM, Sigma-Aldrich, Taufkirchen, Germany; rB1R cells: D-MEM/F12, Gibco Invitrogen, Karlsruhe, Germany) with 10 vol. % FBS (foetal bovine serum, Gibco Invitrogen GmbH, Karlsruhe, Germany or PAN Biotech GmbH, Aidenbach, Germany).
# On the following day the cells are loaded with 2.13 μM Fluo-4 (Molecular Probes Europe BV, Leiden, Netherlands) in HBSS buffer (Hank's buffered saline solution, Gibco Invitrogen GmbH, Karlsruhe, Germany) with 2.5 mM probenecid (Sigma-Aldrich, Taufkirchen, Germany) and 10 mM HEPES (Sigma-Aldrich, Taufkirchen, Germany) for 60 min at 37° C. The plates are subsequently washed twice with HBSS buffer, and HBSS buffer which additionally contains 0.1% BSA (bovine serum albumin; Sigma-Aldrich, Taufkirchen, Germany), 5.6 mM glucose and 0.05% gelatine (Merck KGaA, Darmstadt, Germany) is added. After a further incubation of 20 minutes at RT, the plates are inserted into the FLIPR for Ca^2+ measurement. Alternatively they are washed with buffer A (15 mM HEPES, 80 mM NaCl, 5 mM KCl, 1.2 mM CaCl2, 0.7 mM MgSO4, 2 g/l glucose, 2.5 mM probenecid) and loaded with buffer A with added 2.5 μM Fluo-4 and 0.025% Pluronic F127 (Sigma-Aldrich, Taufkirchen, Germany). The cells are then washed twice with buffer A and incubated for 30 minutes with buffer A, which additionally contains 0.05% BSA and 0.05% gelatine, at RT and then used for Ca^2+ measurement in the FLIPR. The Ca^2+-dependent fluorescence is measured here before and after addition of substances (λex=488 nm, λem=540 nm). The quantification is performed by measuring the highest fluorescence intensity (FC, fluorescence counts) over time.
# The FLIPR protocol comprises two additions of substance. Test substances (10 μM) are first pipetted onto the cells and the Ca^2+ inflow is compared with the control (hB1R: Lys-Des-Arg^9 bradykinin >=50 nM; rB1R: Des-Arg^9 bradykinin 10 μM). The value in % activation based on the Ca^2+ signal after addition of Lys-Des-Arg^9 bradykinin (>=50 nM) or Des-Arg^9 bradykinin (10 μM) is obtained therefrom. After incubation for 10-20 minutes, Lys-Des-Arg^9 bradykinin (hB1R) or Des-Arg^9 bradykinin (rB1R) is applied in the EC80 concentration and the inflow of Ca^2+ is likewise determined.
# Antagonists lead to a suppression of the Ca^2+ inflow. The % inhibition in comparison with the maximum achievable inhibition is calculated. […]
row,SMILES,inhibition at 10 µM [%]
1,"Cc1cccc(Cl)c1S(=O)(=O)N1CCn2cccc2C1CC(=O)N1CCN(Cc2ccc3c(c2)OCO3)CC1 (stereo not drawn) [Example 252, 1-[4-(1,3-Benzodioxol-5-yl-methyl)-piperazin-1-yl]-2-[2-[(2-chloro-6-methyl-phenyl)sulfonyl]-1,2,3,4-tetrahydro-pyrrolo[1,2-a]pyrazin-1-yl]-ethanone]",-10.5
2,"COc1cc(C)c(S(=O)(=O)N2CCn3cccc3C2CC(=O)N2CCN(CCn3c(C)ccc3C)CC2)c(C)c1 (stereo not drawn) [Example 147, 1-[4-[2-(2,5-Dimethyl-1H-pyrrol-1-yl)-ethyl]-piperazin-1-yl]-2-[2-[(4-methoxy-2,6-dimethyl-phenyl)sulfonyl]-1,2,3,4-tetrahydro-pyrrolo[1,2-a]pyrazin-1-yl]-ethanone]",86.5
3,"COc1cc(C)c(S(=O)(=O)N2CCn3cccc3C2CC(=O)N2CCN(CCO)CC2)c(C)c1 (stereo not drawn) [Example 258, 1-[4-(2-Hydroxy-ethyl)-piperazin-1-yl]-2-[2-[(4-methoxy-2,6-dimethyl-phenyl)sulfonyl]-1,2,3,4-tetrahydro-pyrrolo[1,2-a]pyrazin-1-yl]-ethanone]",9.05
4,"O=C(CC1c2cccn2CCN1S(=O)(=O)c1cccc(C(F)(F)F)c1)N1CCN(c2ccccn2)CC1 (stereo not drawn) [Example 190, 1-(4-Pyridin-2-yl-piperazin-1-yl)-2-[2-[[3-(trifluoromethyl)phenyl]sulfonyl]-1,2,3,4-tetrahydro-pyrrolo[1,2-a]pyrazin-1-yl]-ethanone]",20.4
5,"COc1cc(C)c(S(=O)(=O)N2CCn3cccc3C2CC(=O)N2CCN(c3ccccn3)CC2)c(C)c1 (stereo not drawn) [Example 149, 2-[2-[(4-Methoxy-2,6-dimethyl-phenyl)sulfonyl]-1,2,3,4-tetrahydro-pyrrolo[1,2-a]pyrazin-1-yl]-1-(4-pyridin-2-yl-piperazin-1-yl)-ethanone]",68.9

# Continued, values first:
row,inhibition at 10 µM [%],SMILES
1,-1.9,"CN1CCN(C2CCN(C(=O)CC3c4cccn4CCN3S(=O)(=O)c3ccccc3)CC2)CC1 (stereo not drawn) [Example 177, 2-[2-(Benzenesulfonyl)-1,2,3,4-tetrahydro-pyrrolo[1,2-a]pyrazin-1-yl]-1-[4-(4-methyl-piperazin-1-yl)-piperidin-1-yl]-ethanone]"
2,37.5,"O=C(CC1c2cccn2CCN1S(=O)(=O)c1ccccc1)NCC1CCN(Cc2ccccc2)C1 (stereo not drawn) [Example 182, 2-[2-(Benzenesulfonyl)-1,2,3,4-tetrahydro-pyrrolo[1,2-a]pyrazin-1-yl]-N-[(1-benzyl-pyrrolidin-3-yl)-methyl]-acetamide]"
3,68.4,"CN1CCN(CC(NC(=O)CC2c3cccn3CCN2S(=O)(=O)c2ccccc2)c2ccccc2)CC1 (stereo not drawn) [Example 170, 2-[2-(Benzenesulfonyl)-1,2,3,4-tetrahydro-pyrrolo[1,2-a]pyrazin-1-yl]-N-[2-(4-methyl-piperazin-1-yl)-1-phenyl-ethyl]-acetamide]"
4,24.4,"O=C(CC1c2cccn2CCN1S(=O)(=O)c1cccc(C(F)(F)F)c1)N1CCN(c2ccccc2F)CC1 (stereo not drawn) [Example 186, 1-[4-(2-Fluorophenyl)-piperazin-1-yl]-2-[2-[[3-(trifluoromethyl)phenyl]sulfonyl]-1,2,3,4-tetrahydro-pyrrolo[1,2-a]pyrazin-1-yl]-ethanone]"
5,9.74,"CCN1CCN(C(=O)CC2c3cccn3CCN2S(=O)(=O)c2ccccc2)CC1 (stereo not drawn) [Example 173, 2-[2-(Benzenesulfonyl)-1,2,3,4-tetrahydro-pyrrolo[1,2-a]pyrazin-1-yl]-1-(4-ethyl-piperazin-1-yl)-ethanone]"
6,2.94,"Cc1ccc(CN2CCN(C(=O)CC3c4cccn4CCN3S(=O)(=O)c3ccccc3)CC2)cc1 (stereo not drawn) [Example 232, 2-[2-(Benzenesulfonyl)-1,2,3,4-tetrahydro-pyrrolo[1,2-a]pyrazin-1-yl]-1-[4-(p-tolyl-methyl)-piperazin-1-yl]-ethanone]"
7,24.4,"O=C(CC1c2cccn2CCN1S(=O)(=O)c1ccccc1)NC1CCN(Cc2ccccc2)C1 (stereo not drawn) [Example 171, 2-[2-(Benzenesulfonyl)-1,2,3,4-tetrahydro-pyrrolo[1,2-a]pyrazin-1-yl]-N-(1-benzyl-pyrrolidin-3-yl)-acetamide]"
